Results reported in patent US12674178B2, “Methods for the evaluation of neutralizing antibodies for adeno-associated virus” (REGENTS OF THE UNIVERSITY OF MINNESOTA, priority 2020, dated 2026).

Experiments:
HEK293 cells = assay: Cytotoxicity of the drug to the cells to be infected; assay type: cell-based
AAV8 = assay: AAV8-Luc infection of HEK293 cells, luciferase readout; assay type: cell-based, adeno-associated virus; settings: at least one model system, cells pretreated
Procedure: (§1) HEK293 cells were infected with AAV8-Luciferase (Luc) or AAV2-Luc at an MOI of 5000 in the presence of several pharmacologically active drugs (TNFα+LPS, TNFα+IL-6, dorsomorphin (also known as “Compound C” or “CC”), SP600125, or rosiglitazone). The drugs were added 1 hour before injection with AAV-Luc. 24 hours after AAV-Luc was added, luciferase was detected, as further described in Example 2.
Method: Day 0: • 1. Remove culture medium (DMEM supplemented with 10% heat-inactivated FBS and 1% penicillin/streptomycin) from HEK293 cell culture, gently wash cells twice with 100 μL of PBS. Cells should be at low passage and approximately 80% confluent without being overgrown. Harvest cells by trypsinization and perform a cell count. • 2. Resuspend cells in complete DMEM culture medium at 200,000 cells/mL. Seed cells in 96-well plates with black or white walls and clear bottoms: 20,000 cells/well in 100 μL of complete media. • 3. Incubate cells overnight in C02 incubator at 37° C. Day 1: • 1. […] Each dilution was analyzed at least in triplicate. […] Set up spectrophotometer to read chemiluminescence. If the spectrophotometer is BioTek the read conditions are: 500 ms, gain 125-135, height of plate 3.75 mm. Add 50 μL of Bright Glo substrate to each well, incubate plate 3 min in the dark and then read. For maximal light intensity, samples should be measured within 15 minutes of reagent addition. […]

AAV2 = assay: AAV2-Luc infection of HEK293 cells, luciferase readout; assay type: cell-based, adeno-associated virus; settings: AAV2, CC pre-treatment, 48 hours, MOI 2000
Procedure: as §1
Method: Day 0: • 1. Remove culture medium (DMEM supplemented with 10% heat-inactivated FBS and 1% penicillin/streptomycin) from HEK293 cell culture, gently wash cells twice with 100 μL of PBS. Cells should be at low passage and approximately 80% confluent without being overgrown. Harvest cells by trypsinization and perform a cell count. • 2. […] Each dilution was analyzed at least in triplicate. […] Set up spectrophotometer to read chemiluminescence. If the spectrophotometer is BioTek the read conditions are: 500 ms, gain 125-135, height of plate 3.75 mm. Add 50 μL of Bright Glo substrate to each well, incubate plate 3 min in the dark and then read. For maximal light intensity, samples should be measured within 15 minutes of reagent addition.
(§2) The dramatic improvement of AAV8 transduction in vitro in the presence of CC prompted test to determine if similar effect could be achieved for other AAV serotypes. The transduction efficiency of ten common AAV serotypes at MOI 2000 vg/cell was analyzed. […]

AAV10 = assay: AAV10/Luc infection of HEK293 cells, luciferase readout; assay type: cell-based, adeno-associated virus; settings: AAV10, CC pre-treatment, MOI 2000
Procedure: Method: Day 0: • 1. Remove culture medium (DMEM supplemented with 10% heat-inactivated FBS and 1% penicillin/streptomycin) from HEK293 cell culture, gently wash cells twice with 100 μL of PBS. Cells should be at low passage and approximately 80% confluent without being overgrown. Harvest cells by trypsinization and perform a cell count. • 2. Resuspend cells in complete DMEM culture medium at 200,000 cells/mL. Seed cells in 96-well plates with black or white walls and clear bottoms: 20,000 cells/well in 100 μL of complete media. • 3. Incubate cells overnight in C02 incubator at 37° C. Day 1: • 1. Confirm microscopically that cells are 50-80% confluent. • 2. […] Each dilution was analyzed at least in triplicate. […] Set up spectrophotometer to read chemiluminescence. If the spectrophotometer is BioTek the read conditions are: 500 ms, gain 125-135, height of plate 3.75 mm. Add 50 μL of Bright Glo substrate to each well, incubate plate 3 min in the dark and then read. For maximal light intensity, samples should be measured within 15 minutes of reagent addition.
as §2

## c1cc(-c2cnn3cc(-c4ccc(OCCN5CCCCC5)cc4)cnc23)ccn1 [dorsomorphin]
HEK293 cells; HEK293 infected with AAV2/AAV8
  cytotoxic effects: without cytotoxic effects
HEK293 cells; at least one model system
  CC concentration that became toxic to cells: higher than 20 μM
AAV8
  CC pretreatment concentration giving statistically significant increase in activity of AAV/Luc: at least 2.5 μM
AAV2
  luciferase activity, times higher than background: more than 1000 times
AAV10
  luciferase activity, times higher than background: 8 times
